≈ marks a conversion by molar mass, not a printed value.

One data set can be described thus: in vivo. To be noted: both sexes, rat, oral, suspended in 0.5% CMC-Na aqueous solution, SD male and female rats, observed for seven days.
The test system of a further data set is Campylobacter jejuni. Nature of the data set: Measurement of anti-Campylobacter jejuni activity (MIC). The class given is cell-based. The settings on record: method similar to Test Example 1. As for the experimental part: Brain heart infusion culture medium containing 10% fetal bovine serum (Difco) (5 ml) was taken in a test tube, and then the medium was inoculated with Helicobacter pylori strain 31A isolated from human (obtained from the Metropolitan Health Institute, Microorganism Department, First Laboratory of Bacteria). Cultivation was carried out under slightly aerobic condition (5% oxygen, 10% carbon dioxide, 85% nitrogen) at 37° C. for 48 hours with shaking.
The culture was then inoculated to brain heart infusion medium containing 10% fetal bovine serum at a ratio of 5%, and added with a test compound dissolved in 10% dimethyl sulfoxide. Cultivation was carried out under slightly aerobic condition at 37° C. for 48 hours with shaking, and then growth of Helicobacter pylori was examined. […] From the results shown in Tables 3 and 4, it can be understood that the compounds of the present invention have potent inhibitory activity against Helicobacter pylori.
According to a aimiar method to that of Test Example 1, inhibitory activity of the compound of the present invention against Campylobacter jejune was determined. As a result, MIC of the compound of Example 31 was 0.008 μg/ml. From the result, it can be understood that the compound of the present invention has potent inhibitory activity against Campylobacter jejumni.

One may read the LD50 as the dose expected to kill half of the subjects tested. A low value points to a more toxic substance. Turning to `CNC(=O)c1cccc(NC(=O)Cc2cccc3ccccc23)c1` [Example 30, N-(3-Methylcarbamoylphenyl)-1-naphthylacetamide], the 50% lethal dose (LD50) in the data set “in vivo” was at least 2000 mg/kg. As a reminder, the MIC is the lowest concentration that inhibits growth of the organism. A higher MIC goes with a need for much substance. As for `CNC(=O)c1cccc(NC(=O)Cc2ccc3ccccc3c2)c1` [Example 31, N-(3-Methylcarbamoylphenyl)-2-naphthylacetnide], the MIC in the data set with Campylobacter jejuni stood at 8 ng/mL (≈ 0.0251 µM).

The record behind these values is patent US6444849B1, “Amide derivatives” (Mitsubishi Chemical Corporation, priority 1997, dated 2002).
